Where a name gives a salt, the structure may show the parent alone.
Legend:
[1] = tested on: human colon carcinoma cell line, SW-480; experiment: Sulforhodamine B (SRB) tumor cell growth inhibition assay; assay type: cell-based; conditions: SW480, 144 h, SW-480 cell line, six days continuous exposure
Description: The compound of Example 1 was assayed for its growth inhibitory activity on the human colon carcinoma cell line, SW-480 obtained from ATCC (Rockville, Md.), to ascertain the degree of growth inhibition. Growth inhibition of this cell line is indicative of a benefit on precancerous lesions and neoplasms. The cell line and growth assay employed for such experiments are well characterized, and are used to evaluate the anti-neoplastic properties of NSAIDs. The assay is used by the United States National Cancer Institute in its screening program for new anti-cancer drugs.
Drug stock solutions were made in 100% DMSO and were then diluted with RPMI media for cell culture testing. All drug solutions were prepared fresh on the day of testing. The cultured cells were obtained at passage #99 and grown in RPMI media supplemented with 5% fetal calf serum, and 2 mM glutamine, 100 U/ml penicillin, […] streptomycin, and 0.25 μg/ml amphotericin. The cultures were maintained in a humidified atmosphere of 95% air and 5% CO2 at 37° C. […]
Tumor cell growth inhibition was assessed using the Sulforhodamine B (SRB) protein binding assay. […] The dye was then solubilized, and the optical density of the resulting solution was determined on a 96-well plate reader. […]
For each experiment, an IC50 value was determined and used for comparative purposes. […]

[2] = molecular target: T1, purified cyclooxygenase Type I (Ovis aries, UniProt P05979); experiment: Cyclooxygenase (COX) inhibition, purified enzyme; assay type: biochemical; conditions: purified COX from ram seminal vesicles
T1 construct: The COX was purified from ram seminal vesicles; from tissue; host or cells: ram seminal vesicles
T1 sequence (P05979 25-600): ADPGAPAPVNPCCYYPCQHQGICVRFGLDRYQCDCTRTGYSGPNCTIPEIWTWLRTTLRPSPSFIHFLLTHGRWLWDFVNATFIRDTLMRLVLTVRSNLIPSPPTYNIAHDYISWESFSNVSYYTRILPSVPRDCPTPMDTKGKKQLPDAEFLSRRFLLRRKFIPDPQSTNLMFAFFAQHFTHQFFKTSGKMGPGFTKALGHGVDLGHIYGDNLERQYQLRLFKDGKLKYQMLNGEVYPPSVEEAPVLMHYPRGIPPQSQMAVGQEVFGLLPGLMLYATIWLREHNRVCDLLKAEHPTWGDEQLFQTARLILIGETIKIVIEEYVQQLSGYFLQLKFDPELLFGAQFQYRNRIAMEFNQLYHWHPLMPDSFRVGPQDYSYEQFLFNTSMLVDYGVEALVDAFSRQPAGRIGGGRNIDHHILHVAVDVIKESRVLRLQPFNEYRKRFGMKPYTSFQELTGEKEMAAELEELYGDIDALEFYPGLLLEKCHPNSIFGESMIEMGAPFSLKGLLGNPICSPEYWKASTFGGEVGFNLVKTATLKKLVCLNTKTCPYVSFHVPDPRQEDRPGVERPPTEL
Description: COX catalyzes the formation of prostaglandins and thromboxane by the oxidative metabolism of arachidonic acid. The compound of Example 1 of this invention, as well as a positive control, (sulindac sulfide) were evaluated to determine whether they inhibited purified cyclooxygenase Type I (see Table 3 below).
The compounds of this invention were evaluated for inhibitory effects on purified COX. The COX was purified from ram seminal vesicles, as described by Boopathy, R. and Balasubramanian, J., 239:371-377, 1988. COX activity was assayed as described by Evans, A. T., et al., “Actions of Cannabis Constituents on Enzymes Of Arachidonate Metabolism Anti-Inflammatory Potential,” Biochem. Pharmacol., 36:2035-2037, 1987. Briefly, purified COX was incubated with arachidonic acid (100 μM) for 2.0 min at 37° C. in the presence or absence of test compounds. The assay was terminated by the addition of TCA, and COX activity was determined by absorbance at 530 nm.

[3] = tested on: HT-29 human colon carcinoma cells; experiment: Apoptosis by morphology (acridine orange/ethidium bromide fluorescent microscopy); assay type: cell-based; conditions: HT-29 cells
Description: Apoptosis was measured using an assay of cell death based on morphological characteristics of apoptotic cells (i.e., condensed chromatin). Drug preparation and cell culture conditions were the same as for the SRB assay described above, except that HT-29 human colon carcinoma cells were used. Confluent cultures were established in 12.5 cm^2 flasks by plating 0.5×10^6 cells/flask. The cultures were assayed for apoptosis by fluorescent microscopy following labeling with acridine orange and ethidium bromide. Floating and attached cells were collected by trypsinization and washed three times in PBS. One ml aliquots were centrifuged (3 g). The pellet was resuspended in 25 μl media and 1 μl of a dye mixture containing 100 μg/ml acridine orange and 100 μg/ml ethidium bromide prepared in PBS and mixed gently. Ten μl of the mixture was placed on a microscope slide and covered with a 22 mm^2 coverslip, was examined with 40x dry objectives under epillumination by filter combination.
An observer blinded in regard to the identity of the samples scored at least 100 cells per sample. Apoptotic cells were identified by nuclear condensation of chromatin stained by the acridine orange or ethidium bromide.

[4] = tested on: SW-480 colon adenocarcinoma cells; experiment: Apoptosis by DNA fragmentation (Cell Death Detection ELISA plus); assay type: cell-based, human; conditions: for DNA Fragmentation FS (100 μM): fold stimulation FS=ODmax/ODveh; for DNA Fragmentation FS (100 μM) / EC50: SW-480 cells, 48 hrs; for Apoptosis Level (Mean OD Value ± SD): DNA fragmentation, SW-480
Description: Apoptosis was also measured based on the amount of fragmented DNA contained in cell lysates. Briefly, SW-480 colon adenocarcinoma cells were plated in 96-well microtitre plates (“MTP”) at a density of 10 K cells/well in 180 μl and were incubated for 24 hrs. Cells were then treated with 20 μl aliquots of appropriately diluted compound, and allowed to incubate for an additional 48 hrs.
After the incubation, samples were prepared according to the following steps. The MTP was centrifuged (15 min., 1000 rpm) and the supernatant was carefully removed by fast inversion of the MTP. The cell pellets in each well were resuspended in 200 μl lysis buffer and incubated for 45 min. at room temperature to lyse the cells. The lysates were then centrifuged (15 min., 1000 rpm) and 20 μl aliquots of the supernatant (=cytoplasmic fraction) were transferred into the streptavidin coated MTP for analysis. Care was taken not to shake the lysed pellets in the MTP (=cell nucleii containing high molecular weight, unfragmented DNA). Samples were analyzed immediately, because storage at 4C or −20C reduces the ELISA-signals.
Samples were then processed according to a DNA fragmentation assay protocol, and dose-response curves were generated based on optical density readings. Quantification of DNA was done by a commercially available photometric enzyme-immunoassay manufactured by Mannheim-Boehringer under the name “Cell Death Detection ELISA^plus”. The assay is based on a quantitative sandwich-enzyme-immunoassay-principle using mouse monoclonal antibodies directed against DNA and histones, respectively. This allows the specific determination of mono and oligonucleosomes in the cytoplasmatic fraction of cell lysates. In brief, the assay procedure is as follows. The sample (cell-lysate, serum, culture-supematant etc.) is placed into a streptavidin-coated MTP. Subsequently, a mixture of anti-histone-biotin and anti-DNA-POD is followed by incubation for 2 hours. During the incubation period, the anti-histone antibody binds to the histone-component of the nucleosomes and simultaneously fixes the immunocomplex to the streptavidin-coated MTP via its biotinylation. Additionally, the anti-DNA-POD antibody reacts with the DNA component of the nucleosomes. After removal of unbound antibodies by a washing step, the amount of nucleosomes is quantified by the POD retained in the immunocomplex. POD is determined photometrically with ABTS® (2,2′-Azino-di[3-ethylbenzthiazolin-sulfonat])* as substrate.
Fold stimulation (FS=ODmax/ODveh), an indicator of apoptotic response, was determined for each compound tested. EC50 values were determined either specifically by data analysis software, or by estimates based on the effective concentration range of each compound (ECR=min. effective dose-min. dose to peak effect). These FS and EC50 values for the tested compounds are listed above in Table 4.
In addition, using the DNA fragmentation test above, a dose response for the compound of Example 1 was obtained.

Question: With `CC1=C(CC(=O)NCc2ccccc2)c2cc(F)ccc2/C1=C\c1ccncc1` [Example 1, (Z)-5-Fluoro-2-Methyl-(4-Pyridinylidene)-3-(N-Benzyl)-Indenylacetamide] as the molecule, how does the IC50 [1] read?
Answer: 724 nM

Question: What about the inhibition at 100 µM [2] of the same molecule?
Answer: < 25%

Question: And the “Morphology % Apoptotic Cells (1 μM)” value [3]?
Answer: 88%

Question: What about the “DNA Fragmentation FS (100 μM)” value [4] of the same molecule?
Answer: 4.2

Question: And the EC50 ([4]; Homo sapiens, SW480)?
Answer: 29 µM

Question: And the “Apoptosis Level (Mean OD Value ± SD)” value ([4]; dose 0.5 μM)?
Answer: 0.186 ± 0.008

Question: And the “Apoptosis Level (Mean OD Value ± SD)” value ([4]; dose 1.0 μM)?
Answer: 0.207 ± 0.061

Question: And the “Apoptosis Level (Mean OD Value ± SD)” value ([4]; dose 5.0 μM)?
Answer: 0.208 ± 0.073

Question: What about the “Apoptosis Level (Mean OD Value ± SD)” value ([4]; dose 10 μM) of the same molecule?
Answer: 0.296 ± 0.050

Question: And the “Apoptosis Level (Mean OD Value ± SD)” value ([4]; dose 50 μM)?
Answer: 0.500 ± 0.048

Question: What about the “Apoptosis Level (Mean OD Value ± SD)” value ([4]; dose 100 μM) of the same molecule?
Answer: 0.633 ± 0.053

Question: What about the “Apoptosis Level (Mean OD Value ± SD)” value ([4]; dose 500 μM) of the same molecule?
Answer: 0.659 ± 0.012

Question: How did the “DNA Fragmentation FS (100 μM)” value [4] turn out when `CC1=C(CC(=O)NCc2ccccc2)c2cc(F)ccc2/C1=C\c1cccnc1` [Example 2, (Z)-5-Fluoro-2-Methyl-(3-Pyridinylidene)-3-(N-Benzyl)-Indenylacetamide] was run?
Answer: 5.4

Question: Which “DNA Fragmentation FS (100 μM)” value [4] does the source give for `CC1=C(CC(=O)NCc2ccccc2)c2cc(F)ccc2/C1=C\c1ccccn1` [Example 3, (Z)-5-Fluoro-2-Methyl-(2-Pyridinylidene)-3-(N-Benzyl)-Indenylacetamide] here?
Answer: 8.5

Question: With `CC1=C(CC(=O)NCc2ccccc2)c2cc(F)ccc2/C1=C\c1ccnc2ccccc12` [Example 4, (Z)-5-Fluoro-2-Methyl-(4-Quinolinylidene)-3-(N-Benzyl)-Indenylacetamide] as the molecule, how does the “DNA Fragmentation FS (100 μM)” value [4] read?
Answer: 3.9

Question: With `CC1=C(CC(=O)NCc2ccccc2)c2cc(F)ccc2/C1=C\c1ccncc1` [Example 38, (Z)-5-Fluoro-2-Methyl-(4-Pyridylidene)-3-(N-Benzyl) Indenylacetamide Hydrochloride] as the molecule, how does the EC50 [4] read?
Answer: 15 µM

— patent US6426349B1, “Substituted condensation products of N-benzyl-3-indenylacetamides with heterocyclic aldehydes for neoplasia” (Cell Pathway and the University of Arizona, priority 1997, dated 2002)
